Data on 27 compounds can be found in patent US20250282768A1 (Janssen Pharmaceutica NV, priority 2022, published 2025).

The test system of this assay is p-IKKa levels in L363 (NIK translocated multiple myeloma) cells. The assay can be described thus: Assay 2: Effect of compounds on p-IKKa levels in L363 (NIK translocated multiple myeloma) cells. It is filed as cell-based. As to conditions: Homo sapiens, L-363, 6 h, read-out: Assay 2 IC50 (nM), p-IKKa (Ser 176/180) in BAFF stimulated L363 cells with MG132, 6 h; average if tested more than once. In outline: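 L363 cells incubated overnight ± 250 ng/ml BAFF, then 6 h at 37 °C with compound (0.3% DMSO) ± 10 μM MG132. Lysates assayed for p-IKKa (Ser176/180) by AlphaLISA SureFire. IC50 from sigmoidal fit of % inhibition normalized to BAFF/MG132-stimulated and unstimulated controls.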
Take `CN1CC[C@@](O)(c2cc(-c3cccc(-c4ccnc(Nc5cn(C)nc5OCCO)n4)n3)no2)C1=O` [Example 232, (R)-3-Hydroxy-3-(3-(6-(2-((3-(2-hydroxyethoxy)-1-methyl-1H-pyrazol-4-yl)amino)pyrimidin-4-yl)pyridin-2-yl)isoxazol-5-yl)-1-methylpyrrolidin-2-one]: the IC50 was in the range of 50 to 500 nM.

As for `Cc1nn(C2CCOCC2)cc1Nc1nccc(-c2cccc(-c3cc([C@]4(O)CCN(C)C4=O)on3)n2)n1` [Example 233, (R)-3-Hydroxy-1-methyl-3-(3-(6-(2-((3-methyl-1-(tetrahydro-2H-pyran-4-yl)-1H-pyrazol-4-yl)amino)pyrimidin-4-yl)pyridin-2-yl)isoxazol-5-yl)pyrrolidin-2-one], the IC50 is below 50 nM.

Turning to `Cc1nn(CC(C)(C)O)cc1Nc1nccc(-c2cccc(-c3cc([C@]4(O)CCN(C)C4=O)on3)n2)n1` [Example 234, (R)-3-Hydroxy-3-(3-(6-(2-((1-(2-hydroxy-2-methylpropyl)-3-methyl-1H-pyrazol-4-yl)amino)pyrimidin-4-yl)pyridin-2-yl)isoxazol-5-yl)-1-methylpyrrolidin-2-one], the IC50 was below 50 nM.

With `Cc1nn(CC(C)(C)O)cc1Nc1nccc(-c2cccc(-c3cc([C@@]4(O)C(=O)N(C)CC4(F)F)on3)n2)n1` [Example 235, (R)-4,4-Difluoro-3-hydroxy-3-(3-(6-(2-((1-(2-hydroxy-2-methylpropyl)-3-methyl-1H-pyrazol-4-yl)amino)pyrimidin-4-yl)pyridin-2-yl)isoxazol-5-yl)-1-methylpyrrolidin-2-one], the IC50 is below 50 nM.

Consider `Cc1noc(C)c1Nc1nccc(-c2cccc(-c3cc([C@]4(O)CCN(C)C4=O)on3)n2)n1` [Example 236, (R)-3-(3-(6-(2-((3,5-Dimethylisoxazol-4-yl)amino)pyrimidin-4-yl)pyridin-2-yl)isoxazol-5-yl)-3-hydroxy-1-methylpyrrolidin-2-one], for which the IC50 was 50 to 500 nM.

With `CCn1ccc(Nc2nccc(-c3cccc(-c4cc([C@]5(O)CCN(C)C5=O)no4)n3)n2)n1` [Example 237, (R)-3-(5-(6-(2-((1-Ethyl-1H-pyrazol-3-yl)amino)pyrimidin-4-yl)pyridin-2-yl)isoxazol-3-yl)-3-hydroxy-1-methylpyrrolidin-2-one], the IC50 was below 50 nM.

As to `Cc1c(Nc2nccc(-c3cccc(-c4cc([C@]5(O)CCN(C)C5=O)no4)n3)n2)cnn1C` [Example 238, (R)-3-(5-(6-(2-((1,5-Dimethyl-1H-pyrazol-4-yl)amino)pyrimidin-4-yl)pyridin-2-yl)isoxazol-3-yl)-3-hydroxy-1-methylpyrrolidin-2-one], the IC50 is below 50 nM.

Consider `CN1CC(F)(F)[C@@](O)(c2cc(-c3cccc(-c4ccnc(Nc5cnn6c5CCCC6)n4)n3)no2)C1=O` [Example 239, (R)-4,4-Difluoro-3-hydroxy-1-methyl-3-(3-(6-(2-((4,5,6,7-tetrahydropyrazolo[1,5-a]pyridin-3-yl)amino)pyrimidin-4-yl)pyridin-2-yl)isoxazol-5-yl)pyrrolidin-2-one], for which the IC50 was 50 to 500 nM.

As for `CN1C(=O)[C@](O)(c2cc(-c3cccc(-c4ccnc(Nc5cnn(C)c5)n4)n3)no2)[C@H]2C[C@H]21` [Example 240, (1R,4R,5S)-4-Hydroxy-2-methyl-4-(3-(6-(2-((1-methyl-1H-pyrazol-4-yl)amino)pyrimidin-4-yl)pyridin-2-yl)isoxazol-5-yl)-2-azabicyclo[3.1.0]hexan-3-one], the IC50 fell in the range of 50 to 500 nM.

On to `Cc1c(Nc2nccc(-c3cccc(-c4cc([C@@]5(O)C(=O)N(C)[C@@H]6C[C@@H]65)on4)n3)n2)cnn1C` [Example 241, (1R,4R,5S)-4-(3-(6-(2-((1,5-Dimethyl-1H-pyrazol-4-yl)amino)pyrimidin-4-yl)pyridin-2-yl)isoxazol-5-yl)-4-hydroxy-2-methyl-2-azabicyclo[3.1.0]hexan-3-one], for which the IC50 is 50 to 500 nM.

For the compound `Cc1c(Nc2nccc(-c3cccc(-c4cc([C@@]5(O)C(=O)N(C)CC5(F)F)on4)n3)n2)cnn1CC(C)(C)O` [Example 242, (R)-4,4-Difluoro-3-hydroxy-3-(3-(6-(2-((1-(2-hydroxy-2-methylpropyl)-5-methyl-1H-pyrazol-4-yl)amino)pyrimidin-4-yl)pyridin-2-yl)isoxazol-5-yl)-1-methylpyrrolidin-2-one], the IC50 was 50 to 500 nM.

As for `CN1CC(F)(F)[C@@](O)(c2cc(-c3cccc(-c4ccnc(Nc5cnn6c5CCC6)n4)n3)no2)C1=O` [Example 243, (R)-3-(3-(6-(2-((5,6-Dihydro-4H-pyrrolo[1,2-b]pyrazol-3-yl)amino)pyrimidin-4-yl)pyridin-2-yl)isoxazol-5-yl)-4,4-difluoro-3-hydroxy-1-methylpyrrolidin-2-one], the IC50 was below 50 nM.

For the compound `Cc1cccc(Nc2nccc(-c3cccc(-c4cc([C@]5(O)CCN(C)C5=O)on4)n3)n2)n1` [Example 244, (R)-3-Hydroxy-1-methyl-3-(3-(6-(2-((6-methylpyridin-2-yl)amino)pyrimidin-4-yl)pyridin-2-yl)isoxazol-5-yl)pyrrolidin-2-one], the IC50 lay within 50 to 500 nM.

On to `Cc1cncc(Nc2nccc(-c3cccc(-c4cc([C@]5(O)CCN(C)C5=O)on4)n3)n2)c1` [Example 245, (R)-3-Hydroxy-1-methyl-3-(3-(6-(2-((5-methylpyridin-3-yl)amino)pyrimidin-4-yl)pyridin-2-yl)isoxazol-5-yl)pyrrolidin-2-one], for which the IC50 was above 500 nM.

In the case of `Cc1cnccc1Nc1nccc(-c2cccc(-c3cc([C@]4(O)CCN(C)C4=O)on3)n2)n1` [Example 246, (R)-3-Hydroxy-1-methyl-3-(3-(6-(2-((3-methylpyridin-4-yl)amino)pyrimidin-4-yl)pyridin-2-yl)isoxazol-5-yl)pyrrolidin-2-one], the IC50 was above 500 nM.

Turning to `CN1CC[C@@](O)(c2cc(-c3cccc(-c4ccnc(Nc5cccnc5)n4)n3)no2)C1=O` [Example 247, (R)-3-Hydroxy-1-methyl-3-(3-(6-(2-(pyridin-3-ylamino)pyrimidin-4-yl)pyridin-2-yl)isoxazol-5-yl)pyrrolidin-2-one], the IC50 is above 500 nM.

With `CN1CC[C@@](O)(c2cc(-c3cccc(-c4ccnc(Nc5ccccn5)n4)n3)no2)C1=O` [Example 248, (R)-3-Hydroxy-1-methyl-3-(3-(6-(2-(pyridin-2-ylamino)pyrimidin-4-yl)pyridin-2-yl)isoxazol-5-yl)pyrrolidin-2-one], the IC50 lay within 50 to 500 nM.

In the case of `CN1CC[C@@](O)(c2cc(-c3cccc(-c4ccnc(Nc5ccncc5)n4)n3)no2)C1=O` [Example 249, (R)-3-Hydroxy-1-methyl-3-(3-(6-(2-(pyridin-4-ylamino)pyrimidin-4-yl)pyridin-2-yl)isoxazol-5-yl)pyrrolidin-2-one], the IC50 is below 50 nM.

For `CCn1cc(Nc2nccc(-c3cccc(-c4cc([C@]5(O)CCN(C)C5=O)on4)n3)n2)c(C)n1` [Example 250, (R)-3-(3-(6-(2-((1-Ethyl-3-methyl-1H-pyrazol-4-yl)amino)pyrimidin-4-yl)pyridin-2-yl)isoxazol-5-yl)-3-hydroxy-1-methylpyrrolidin-2-one], the IC50 is below 50 nM.

Regarding `CN1CC[C@@](O)(c2cn(-c3cccc(-c4ccnc(Nc5cnn6c5CCCC6)n4)n3)nn2)C1=O` [Example 251, (R)-3-Hydroxy-1-methyl-3-(1-(6-(2-((4,5,6,7-tetrahydropyrazolo[1,5-a]pyridin-3-yl)amino)pyrimidin-4-yl)pyridin-2-yl)-1H-1,2,3-triazol-4-yl)pyrrolidin-2-one], the IC50 is below 50 nM.

As to `Cc1nn(C2CCN(C)CC2)cc1Nc1nccc(-c2cccc(-c3cc([C@]4(O)CCN(C)C4=O)on3)n2)n1` [Example 252], the IC50 lay within 50 to 500 nM.

`CCn1ccc(Nc2nccc(-c3cccc(-n4cc([C@]5(O)CCN(C)C5=O)nn4)n3)n2)n1` [Example 253, (3R)-3-[1-[6-[2-[(1-Ethylpyrazol-3-yl)amino]pyrimidin-4-yl]-2-pyridyl]triazol-4-yl]-3-hydroxy-1-methyl-pyrrolidin-2-one]: the IC50 was below 50 nM.

On to `CN1CC[C@@](O)(c2cc(-c3cccc(-c4ccnc(Nc5ccc(F)cn5)n4)n3)no2)C1=O` [Example 254, (R)-3-(3-(6-(2-((5-Fluoropyridin-2-yl)amino)pyrimidin-4-yl)pyridin-2-yl)isoxazol-5-yl)-3-hydroxy-1-methylpyrrolidin-2-one], for which the IC50 fell in the range of 50 to 500 nM.

With `COc1ccc(Nc2nccc(-c3cccc(-c4cc([C@]5(O)CCN(C)C5=O)on4)n3)n2)nn1` [Example 255, (R)-3-Hydroxy-3-(3-(6-(2-((6-methoxypyridazin-3-yl)amino)pyrimidin-4-yl)pyridin-2-yl)isoxazol-5-yl)-1-methylpyrrolidin-2-one], the IC50 fell in the range of 50 to 500 nM.

As to `Cc1ccc(Nc2nccc(-c3cccc(-c4cc([C@]5(O)CCN(C)C5=O)on4)n3)n2)nn1` [Example 256, (R)-3-Hydroxy-1-methyl-3-(3-(6-(2-((6-methylpyridazin-3-yl)amino)pyrimidin-4-yl)pyridin-2-yl)isoxazol-5-yl)pyrrolidin-2-one], the IC50 is 50 to 500 nM.

On to `CN1CC[C@@](O)(c2cc(-c3cccc(-c4ccnc(Nc5ccnc6c5CCO6)n4)n3)no2)C1=O` [Example 257, (R)-3-(3-(6-(2-((2,3-Dihydrofuro[2,3-b]pyridin-4-yl)amino)pyrimidin-4-yl)pyridin-2-yl)isoxazol-5-yl)-3-hydroxy-1-methylpyrrolidin-2-one], for which the IC50 is below 50 nM.

Take `CN1CC[C@@](O)(c2cc(-c3cccc(-c4ccnc(Nc5nc(CN6CCCC6)cs5)n4)n3)no2)C1=O` [Example 258, (R)-3-Hydroxy-1-methyl-3-(3-(6-(2-((4-(pyrrolidin-1-ylmethyl)thiazol-2-yl)amino)pyrimidin-4-yl)pyridin-2-yl)isoxazol-5-yl)pyrrolidin-2-one]: the IC50 is below 50 nM.
